US20250161243A1, “MEF2 TRANSCRIPTIONAL ACTIVATORS TO TREAT NEUROLOGIC CONDITIONS” (The Scripps Research Institute, priority 2022, published 2025)
Counter-ions that a name gives are not always drawn. Like-named read-outs stand apart in the source and are kept apart here.

Tested on: MEF2 transcriptional activity
Assay: MEF2 transcriptional activity screen (Luciferase-MEF2 reporter in human neural progenitor cells)
Type: cell-based
[1] = Homo sapiens, concentration for half-maximal activity derived from the hill equation model, MEF2 luciferase reporter, read-out: qAC50
[2] = concentration for half-maximal activity derived from the hill equation model, MEF2 luciferase reporter, read-out: qAC50

Compound	EC50 [1] [M]	EC50 [2] [M]	also measured
COC(=O)C1=C(C)NC(C)=C(C(=O)OC(C)C)C1c1ccccc1[N+](=O)[O-] (centres unmarked)	1.53e-06	–	–
CSCCOC(=O)C1=C(C)NC(C)=C(C(=O)OCCSC)C1c1ccccc1[N+](=O)[O-]	2.07e-06	–	–
CC(=O)C(=Cc1ccccc1)C(C)=O	1.57e-05	–	–
Cn1cc(-c2ccc(S(=O)(=O)n3ccc(/C=C/C(=O)Nc4ccccc4N)c3)cc2)cn1 [4SC-202]	1.75e-05	–	–
COc1ccc2[nH]cc(CCN(C(C)C)C(C)C)c2c1 [5-MeO-DIPT]	–	> 1.99e-05	–
CC(CO)(CO)NCc1ccc2c3c(cccc13)-c1ccccc1-2 [773U82]	1.89e-05	–	–
CC1(C)C(=O)Nc2cc3[nH]c(-c4ccncc4)nc3cc21 [ADIBENDAN]	–	> 1.99e-05	–
O=c1cc(-c2ccc(O)cc2)oc2cc(O)cc(O)c12 [APIGENIN]	4.69e-06	–	–
COC(=O)C1=C(C)NC(C)=C(C(=O)OCC(C)=O)C1c1ccccc1[N+](=O)[O-] (centres unmarked) [ARANIDIPINE]	–	3.11e-06	–
Cc1nn(C)cc1CN1CCC(c2ccc(C(=O)Nc3ccccc3N)cc2)CC1 [AZD-9468]	–	> 1.99e-05	–
CCCNC(=O)c1ccc2c(c1)N(C(C)CN1CCCC1)c1ccccc1S2 (centres unmarked) [Apadoline]	1.97e-05	–	–
Clc1ccc2oc(C(c3ccccc3Cl)n3ccnc3)cc2c1 (centres unmarked) [BECLICONAZOLE]	–	5.1e-06	–
CC[C@@H]1C(=O)N(C)c2cnc(Nc3ccc(C(=O)NC4CCN(C)CC4)cc3OC)nc2N1C1CCCC1 [BI-2536]	2.09e-07	–	–
COC(=O)Nc1nc2cc(C3(O)c4ccccc4C(=O)N3c3cc(Cl)ccc3C)ccc2[nH]1 (centres unmarked) [BMS-908662]	–	> 1.99e-05	–
CC(C)Nc1cc(-c2c[nH]c(C(=O)N[C@H](CO)c3cccc(Cl)c3)c2)c(Cl)cn1 [BVD-523]	–	9.87e-07	–
COc1ccc(C(=O)/C(Br)=C/C(=O)O)cc1 [Bromebrate sodium]	> 1.99e-05	–	–
N/C(=N\Nc1ccccc1)c1ccccc1 [CBS-1114]	> 1.99e-05	–	–
CN(C)CCCNC(=O)/C(=C/CCCCC(=O)NO)COc1cccc2ccccc12 [CG-200745]	2.14e-07	–	–
O=C(NOCCO)c1cc(CN2OCCCC2=O)c(F)c(F)c1Nc1ccc(I)cc1F [CH-4987655]	–	–	EC50 (Homo sapiens, read-out: qAC50 [M]): 1.07e-07 M
O=C(NO)c1cnc(N2C[C@@H]3[C@H](C2)[C@H]3NCc2ccc3cc(F)ccc3n2)nc1 [CHR-3996]	2.8e-07	–	–
O=C(NOCC1CC1)c1ccc(F)c(F)c1Nc1ccc(I)cc1Cl [CI-1040]	8.54e-07	–	–

Compound	EC50 [1] [M]	EC50 [2] [M]	also measured
O=c1oc(CCN2CCN(c3ccccc3)CC2)c(-c2ccc(Cl)cc2)o1 [CLODOXOPONE]	> 1.99e-05	–	–
CCCCCN=C(N)Nc1nc(-c2cnc(C)[nH]2)cs1 [CP 66948]	–	> 1.99e-05	–
CN(C)CCOc1ccc2[nH]c(C(=O)NCC#Cc3ccc(C(=O)NO)cc3)cc2c1 [CRA-026440]	–	1.29e-05	–
C#Cc1cccc(Nc2ncnc3cc(OC)c(OCCCCCCC(=O)NO)cc23)c1 [CUDC-101]	1.05e-06	–	–
CN1Cc2ccccc2[C@@H]2c3cccc4[nH]cc(c34)C[C@H]21 [CY-208-243]	–	1.96e-05	–
COc1ccc2[nH]c(C(=O)c3ccccc3)cc2c1 [D-64131]	–	3.74e-06	–
CCCc1cc(O)c2c(c1)OC(C)(C)[C@@H]1CCC(C)=C[C@@H]21 [DELTA-9-TETRA-[…]]	2.29e-06	–	–
COC(=O)Nc1nc2cc(Sc3ccc(NC(=O)[C@H](C)N)cc3)ccc2[nH]1 [DENIBULIN]	–	1.51e-06	–
CCCCCCC(C)(C)c1cc(O)c2c(c1)OC(C)(C)[C@H]1CC=C(CO)C[C@H]21 [Dexanabinol]	7.97e-06	–	–
O=C(NO)c1ccc(C2=Nc3ccccc3Oc3ccccc32)cc1 [EVP-0334]	3.03e-06	–	–
CN(C)CCCn1c(=O)c2ccccc2c2ccccc21 [FANTRIDONE]	–	5.38e-06	–
O=C(Nc1nc2cccc(-c3ccc(CN4CCS(=O)(=O)CC4)cc3)n2n1)C1CC1 [Filgotinib]	–	> 1.99e-05	–
CCN1CCC(Oc2c(C#N)ncc3[nH]c4ncccc4c23)CC1 [GDC-0425]	–	1.26e-06	–
CCN(CC)Cc1ccc2cc(COC(=O)Nc3ccc(C(=O)NO)cc3)ccc2c1 [Givinostat hydrochloride]	9.72e-07	–	–
O=C(NO)c1cnc(N2CCN(S(=O)(=O)c3ccc4ccccc4c3)CC2)nc1 [JNJ-16241199]	1.59e-07	–	–
O=C(Cc1ccc(-c2ccc(N3CCOCC3)cc2)cn1)NCc1cccc(F)c1 [KX-02]	–	5.8e-07	–
O=C(/C=C/c1ccc(CN(CCO)CCc2c[nH]c3ccccc23)cc1)NO [LAQ 824]	–	5.3e-07	–
C[C@H](Nc1cc(-c2cnn(C)c2)cc(Nc2cnccn2)n1)c1ccc(F)cc1 [NS-018]	–	1.12e-05	–
C/C(=N\NC(=O)c1ccc(C(=O)O)s1)c1csc(-c2ccc(Cl)c(Cl)c2)c1O [ONO-7746]	2.57e-06	–	–
Cc1sc2c(c1C)C(c1ccc(Cl)cc1)=N[C@@H](CC(=O)Nc1ccc(O)cc1)c1nnc(C)n1-2 [OTX-015]	4.51e-07	–	–
CCCCc1ccc2[nH]c(NC(=O)OC)nc2c1 [PARBENDAZOLE]	–	1.75e-06	–

Compound	EC50 [1] [M]	EC50 [2] [M]	also measured
CCOC(=O)OC(C)OC(=O)CNC(=O)[C@@H](CSSC[C@@H](N)CCSC)Cc1ccccc1 (some centres unmarked) [PL-37]	1.29e-05	–	–
CCC(C)SSc1ncc[nH]1 (centres unmarked) [PX-12]	–	9.95e-07	–
Cc1[nH]c2ccccc2c1CCNCc1ccc(/C=C/C(=O)NO)cc1 [Panobinostat lactate]	1.22e-08	–	–
CC(C)OC(=O)CCC/C=C\C[C@H]1C(=O)C=C[C@@H]1/C=C/[C@@H](O)CCc1ccccc1 [Posaraprost]	> 4.97e-06	–	–
CCOC(=O)/C(=C/c1ncc([N+](=O)[O-])n1C)C(C)=O [Propenidazole]	–	3.11e-06	–
COc1ccc2c(c1)-c1nn(CCCN(C)C)c3ccc([N+](=O)[O-])c(c13)N2 [Pyrazoloacridine]	–	> 1.99e-05	–
Cn1nccc1Nc1nccc(-c2ccn([C@H](CO)c3ccc(Cl)c(F)c3)c(=O)c2)n1 [RG-7842]	1.23e-05	–	–
COc1cc(F)c(F)c(Nc2ccc(I)cc2F)c1NS(=O)(=O)C1(C[C@H](O)CO)CC1 [Refametinib]	2.73e-06	–	–
C=C(C)[C@]12C[C@@H](C)[C@@]34O[C@](Cc5ccccc5)(O[C@@H]1[C@@H]3C=C(COC(=O)Cc1ccc(O)c(OC)c1)C[C@]1(O)C(=O)C(C)=C[C@@H]41)O2 [Resiniferatoxin]	5.11e-09	–	–
CN(C)CCNC(=O)c1cccc2cc3ccccc3nc12 [SN-22995]	> 1.99e-05	–	–
COc1ccc2nc(-c3cccc(F)c3)cc(O)c2c1OP(=O)(OCc1ccccc1)OCc1ccccc1 [TRX-818]	1.01e-05	–	–
CC(=O)Nc1ccc(C(=O)Nc2ccccc2N)cc1 [Tacedinaline]	1.31e-05	–	–
CC(C)c1ccc(CN2CCN(C(c3ccc(F)cc3)c3ccc(F)cc3)CC2)c(=O)c(NCCO)c1 [U 92032]	> 1.99e-05	–	–
CC(C)(CO)c1cc2cc(NC(=O)C3(c4ccc5c(c4)OC(F)(F)O5)CC3)c(F)cc2n1C[C@@H](O)CO [VX-661]	> 1.99e-05	–	–
CN(C)C(C(=O)Nc1ccc2c(=O)[nH]ccc2c1)c1ccsc1 (centres unmarked) [Verosudil]	–	7.54e-06	–
CC[C@]1(O)C[C@@H]2CN(CCc3c([nH]c4ccccc34)[C@@](C(=O)OC)(c3cc4c(cc3OC)N(C)[C@H]3[C@@](O)(C(=O)OC)[C@H](OC(C)=O)[C@]5(CC)C=CCN6CC[C@]43[C@@H]65)C2)C1 [Vinblastine sulfate]	–	–	EC50 (read-out: qAC50): 6.73e-08 M
CCN(CC)CCNc1ccc(CNC)c2sc3ccccc3c(=O)c12 [WIN 33156]	> 1.99e-05	–	–
CN(C)Cc1c(C(=O)NCCOc2ccc(C(=O)NO)cc2)oc2ccccc12 [abexinostat]	2.2e-06	–	–
O=C(/C=C/c1cccc(S(=O)(=O)Nc2ccccc2)c1)NO [belinostat]	6.7e-07	–	–
Cn1cnc2c(F)c(Nc3ccc(Br)cc3F)c(C(=O)NOCCO)cc21 [binimetinib]	–	> 1.99e-05	–
